Assay results: US20240336653A1, “PEPTIDE COMPOUND TARGETING ELASTIN-DERIVED PEPTIDES AND USE THEREOF” (Shenzhen Turier Biotech Co., Ltd., priority 2020, published 2024)
*1 amine or outer side, *2 acyl side, *3 side chain or, on linkers, in order; H or OH if unused. Primed or numbered codes have the meaning given here. Where no end group is shown, it is not given here. [ ]: non-standard residue; d: D form. The star is where a group is joined. C20 diacid = O=C(O)CCCCCCCCCCCCCCCCCCC(=O)*; γGlu = O=C(O)[C@H](CCC(=O)[*:2])N[*:1]; Iva = CC[C@](C)(N)C(=O)O; PEG2′ = not defined here

Legend:
[1] = test system: MMP9; test: ELISA of MMP9 in serum of mice of the bleomycin model; assay type: in vivo, C57BL/6J mice; conditions: BLM mice, 150 μg/kg daily intraperitoneal, 14 days, FIG. 6-A
Protocol: (§1) Molding method: 78 male C57BL/6J mice, 16-18 g in weight and 6-8 weeks old, provided by Laboratory Animal Center, Sun Yat-sen University, randomly divided into 13 groups: 1) normal control group (Normal), n=6; 2) sham-operated saline control group (Saline), n=6; 3) bleomycin model group (BLM), n=6; and 4) model treatment group: administration of 150 μg/kg series compounds to mice, 10 groups in total, n=6/group. On the 7th day after the operation of bleomycin induced pulmonary fibrosis in mice, mice in the model treatment group are treated with drugs (administration frequency: daily administration/150 μg/kg, intraperitoneal injection). Samples are taken 14 days after administration, and pathological observations are recorded.
(§2) The bleomycin (purchased from TCI Shanghai)) induced pulmonary fibrosis model manifests the following pathological features: bronchiectasis, hydropic degeneration of bronchial epithelial cells, obvious edema and widening of alveolar interstitium, and deposition of a large number of fibroblasts and collagen tissue. The alveolar structure almost completely disappears, filled with fibrous connective tissue, and accompanied by inflammatory cell infiltration. After 14 days of administration, the mice in the model treatment group are treated and sampled. Blood is taken from the retrobulbar vein for detection of serological indicators, and […] is taken for pathological analysis.
(§3) The occurrence and development of fibrotic diseases are related to TGF-β and MMP-9 induced EMT process. Matrix metalloproteinases (MMPs) are matrix degrading proteases that degrade all components of extracellular matrix. They participate in the pathophysiological process of pulmonary fibrosis, play an important role in the abnormal remodeling of extracellular matrix and destruction of basement membrane, and promote the recruitment of inflammatory cells and fibroblasts. The increased expression of MMP-9 in pulmonary fibrosis animal models and patients, higher than the normal MMP-9 level, may destroy normal tissue structure and increase the migration of inflammatory cells to the disease site. In order to further explore the inhibitory mechanism of polypeptide drugs on bleomycin induced pulmonary fibrosis, we detect the expression of TGFβ, MMP9 cell factors in serum of mice in each group by ELISA. […] We speculate that its mechanism should be related to TGF-β.

[2] = test system: TGF-β; test: ELISA of TGFβ in serum of mice of the bleomycin model; assay type: in vivo, C57BL/6J mice; conditions: BLM mice, 150 μg/kg daily intraperitoneal, 14 days, FIG. 6-B
Protocol: as §1, §2, §3

[3] = test system: LX2 cells; test: Activity evaluation in LX2 cell model (α-SMA protein expression); assay type: cell-based, human; conditions: 1.0 μM and 10.0 μM, 48 hours incubation, GAPDH internal reference, FIG. 1
Description: In LX2 cell model (which can be directly used as the evaluation model of hepatic fibrosis cells in vitro, because LX2 cells are human liver activated stellate cells. The LX2 cells are purchased from China Center for Type Culture Collection of the Chinese Academy of Sciences, Shanghai, China), the anti-fibrosis activities of peptide compounds 1-25 are preliminarily screened, and the expression of the marker α-SMA protein of myofibroblast activation is detected. The peptide compounds 1-25 is subjected to cell incubation for 48 hours by using two concentrations (1.0 μM and 10.0 μM). The control group is given the same volume of Dulbecco's modified Eagle medium (DMEM) (purchased from Gibco in the United States), and GAPDH (purchased from TransGen Biotech) as the internal reference, α-actin (α-SMA) is a symbolic feature that distinguishes myoblast cells from myofibroblasts.

[4] = test system: bleomycin induced pulmonary fibrosis; test: Bleomycin (BLM) induced pulmonary fibrosis model in mice; assay type: in vivo, C57BL/6J mice; conditions: 150 μg/kg daily intraperitoneal, 14 days, FIG. 5; for degree of pulmonary fibrosis (H&E staining and Masson staining): compared with bleomycin control group; for fibronectin in pulmonary parenchyma (α-SMA and Collagen1 immunohistochemistry): compared with bleomycin group
Protocol: as §1, §2
(§4) H&E staining: paraffin embedded tissue sections are taken and baked at 60° C. for 1 h. Dewaxing and hydration: xylene for 20 minutes→xylene for 20 minutes→absolute alcohol for 15 minutes→absolute alcohol for 15 minutes→95% alcohol for 10 minutes→90% alcohol for 5 minutes→80% alcohol for 5 minutes. Staining: hematoxylin for 7 minutes→rinsing with tap water→differentiation with 1% hydrochloric acid alcohol for 1 s→rinsing with tap water→eosin staining for 15 s-20 s→rinsing with tap water. Dehydration and transparency: 75% alcohol for 1 s→85% alcohol for 1 s→95% alcohol for 1 s→100% alcohol for 1 s→xylene for 1 s→xylene for 1 s. The sections are aired for 30 minutes and sealed with gum.
Masson staining: drying and dewaxing; mordanting; adding celestine blue staining solution for 2-3 min, and washing with water; adding Mayer hematoxylin staining solution and washing with water; differentiating with acid alcohol differentiation liquid for several seconds, and washing with tap water; adding ponceau magenta staining solution and washing with distilled water; treating with phosphomolybdic acid solution; adding aniline blue staining solution for 5 min; treating with weak acid solution for 2 min; dehydration and transparency, airing and sealing with gum.
Immunohistochemistry: drying sections, dewaxing, and then soaking in double distilled water for 5 minutes. […]

[5] = test system: CCl4 induced hepatic fibrosis; test: Carbon tetrachloride (CCl4) induced hepatic fibrosis model in mice; assay type: in vivo, C57BL/6J mice; conditions: 100.0 μg/kg intraperitoneal, 3 weeks of administration; for aggregation of inflammatory cells in the liver (HE staining) / hepatic fibrosis of mice: FIG. 2; for expression of Collagen I in the liver (immunohistochemistry): FIG. 3; for collagen deposition in the liver (Sirius red staining): FIG. 4
Protocol: Molding method: 72 male C57BL/6J mice, male, 18-22 g in weight and 8 weeks old, provided by Laboratory Animal Center, Sun Yat-sen University, randomly divided into 12 groups: 1) control group (Oil)+saline, intraperitoneal injection, n=6; 2) model control group (CCl4)+saline, intraperitoneal injection, n=6; administration of CCl4 to mice once every three days for 6 weeks; 3) model administration group (CCl4)+100.0 μg/kg series of compounds (group 10), intraperitoneal injection, n=6/group. The mice in the control group are injected with corn oil at the same volume and frequency according to the administration volume of 20% CCl4 at the weight of 5.0 μL/g. Administration frequency: administration of CCl4 to mice once every three days for 6 weeks. After 3 weeks of administration of CCl4 to mice in the model administration group, peptide compounds 1, 5, 7, 11, 12, 13, 17, 18, 21 and 22 are administered for 3 weeks from the 4th week. CCl4 and Oil are purchased from Shanghai Aladdin Biochemical Technology Co., Ltd.
In the CCl4 induced hepatic fibrosis model, the manifestations are: inflammatory cell infiltration around the central vein area, hydropic degeneration of hepatic cells, and increased accumulation of collagen fibers in the portal area and the hepatic interlobular septum. After three weeks of administration, the mice are treated and sampled. Blood is taken from the retrobulbar vein for detection of serological indicators, and liver tissue is taken for pathological analysis.
as §4, with “Hematoxylin-eosin (H&E) staining: paraffin” for “H&E staining: paraffin”, “s→xylene for Is→xylene for 1” for “s→xylene for 1 s→xylene for 1”
Sirius red staining: drying and dewaxing; standing for 5.0 minutes in double distilled water; Sirius red staining for 60-80 minutes in a dark room; washing for 5 s with 0.5% glacial acetic acid; dehydration and transparency, sealing and taking photos.
Immunohistochemistry: drying sections, dewaxing, and then soaking in double distilled water for 5 minutes. Antigen retrieval: putting the shelf where pathological sections are placed into a beaker containing citric acid buffer (PH=6.0), and keeping it under high temperature and pressure for 15 minutes; taking out the beaker and letting it stand at room temperature until the temperature drops to the room temperature, then taking out the sections and putting them into 3.0% hydrogen peroxide for 10 minutes to block the endogenous peroxidase activity, and then washing them with PBS for three times, 5 minutes each time; sealing the tissues with 1.0% BSA for 1 h; removing 1.0% BSA, adding Collagen I antibody on the tissue according to the proportion recommended in the Description, and staying overnight at 4° C.; taking out the pathological sections next day, adding the second antibody with horseradish peroxidase after the room temperature is restored, incubating it at 37° C. for 60 minutes, and then use DAB (diaminobenzidine) ([…], USA) to develop color; and re-staining with hematoxylin staining solution, washing with tap water for 5 minutes, differentiating with 1% hydrochloric acid alcohol, then washing with tap water for 5 minutes again, dehydrating, airing, sealing, and taking photos (H&E staining solution and Sirius red staining solution are purchased from Sangon Biotech (Shanghai) Co., Ltd., and Collagen I antibody is purchased from CST Corporation).

Row | Substance | concentration of MMP9 in serum of mice [1] | concentration of TGF-β in serum of mice [2] | inhibiting and improving the activity of α-SMA (expression of α-SMA protein) [3] | degree of pulmonary fibrosis (H&E staining and Masson staining) [4] | fibronectin in pulmonary parenchyma (α-SMA and Collagen1 immunohistochemistry) [4] | aggregation of inflammatory cells in the liver (HE staining) [5] | hepatic fibrosis of mice [5] | expression of Collagen I in the liver (immunohistochemistry) [5] | collagen deposition in the liver (Sirius red staining) [5]
1 | (PEG2-PEG2-γGlu-CO(CH2)18CO2H)-Val-Val-Gly-Ser-Pro-Ser-Ala-Gln-Glu-Asp-Ala-Ser-Pro-Leu-NH2 ({C20 diacid-γGlu-PEG2′-PEG2′}-VVGSPSAQEDASPL-NH2) [Compound 12] | significantly reduce | significantly reduce | better effects on inhibiting and improving the activity of α-SMA | significantly reduced | significantly less than that in bleomycin group | significantly improved | significantly improved | significant therapeutic improvement | significant therapeutic improvement
2 | Compound 17: cyclic peptide compound, head-to-tail amide (VVGSPSAQDEASPL; head-to-tail cyclisation; Compound 17) | significantly reduce | significantly reduce | better effects on inhibiting and improving the activity of α-SMA | significantly reduced | significantly less than that in bleomycin group | significantly improved | significantly improved | significant therapeutic improvement | significant therapeutic improvement
3 | Compound 18: cyclic peptide compound, head-to-tail amide (VVGSPSAQDEASPA; head-to-tail cyclisation; Compound 18) | significantly reduce | significantly reduce | better effects on inhibiting and improving the activity of α-SMA | significantly reduced | significantly less than that in bleomycin group | significantly improved | significantly improved | significant therapeutic improvement | significant therapeutic improvement
4 | Compound 21: cyclic peptide compound, head-to-tail amide (cyclo(V[Iva]GSPSAQDEASPA); SMILES CC[C@]1(C)NC(=O)[C@H](C(C)C)NC(=O)[C@H](C)NC(=O)[C@@H]2CCCN2C(=O)[C@H](CO)NC(=O)[C@H](C)NC(=O)[C@H](CCC(=O)O)NC(=O)[C@H](CC(=O)O)NC(=O)[C@H](CCC(N)=O)NC(=O)[C@H](C)NC(=O)[C@H](CO)NC(=O)[C@@H]2CCCN2C(=O)[C@H](CO)NC(=O)CNC1=O) | significantly reduce | significantly reduce | better effects on inhibiting and improving the activity of α-SMA | significantly reduced | significantly less than that in bleomycin group | significantly improved | significantly improved | significant therapeutic improvement | significant therapeutic improvement
5 | Compound 22 (V[Iva]GSPSAQEEASPA; not fully specified (N-terminus, C-terminus)) | significantly reduce | significantly reduce | better effects on inhibiting and improving the activity of α-SMA | significantly reduced | significantly less than that in bleomycin group | significantly improved | significantly improved | significant therapeutic improvement | significant therapeutic improvement
